Results reported in patent publication US20040029944A1 (priority 2001, published 2004).
Where two headings read alike, the source gives them in different places.

System: Phytophthora infestans
Type: in vivo
Conditions: individual active compound, tomato leaves, protective, evaluated after 6 days

Compound: Cc1ccc(-c2c(Cl)nc(C#N)n2S(=O)(=O)N(C)C)cc1 [Ia, cyazofamid]
- Efficacy in % of the untreated control (0.05 ppm in the spray liquor): 58%
- Efficacy in % of the untreated control (0.1 ppm in the spray liquor): 74%
- Efficacy in % of the untreated control (0.2 ppm in the spray liquor): 84%
